Measured values: paper PMC12587601 (Antimicrobial Agents and Chemotherapy, 2025)
Marks after values point to notes of the source that are not given here.

Columns and labels:
[1] = Population pharmacokinetic analysis of ritonavir plasma concentrations (CHAPAS-4 pharmacokinetic sub-study, week 6, NONMEM)
Protocol: The trial included children with HIV from Zambia, Uganda, and Zimbabwe, aged 3–15 years, weighing at least 14 kg (Table 1), receiving abacavir-, zidovudine-, or stavudine-containing NRTI backbone and failing on ART according to WHO criteria (confirmed viral load >1,000 copies/mL after adherence counseling or CD4 criteria for failure or clinical criteria for failure). A nested pharmacokinetic sub-study was conducted within the CHAPAS-4 trial. […] Written informed consent was given by parents/caregivers, and local and national ethics committees approved the main trial and nested pharmacokinetic sub-study.
The dose depended on the companion PI (Table 2). NRTI backbones were also dosed according to weight bands. Children were followed up for 96 weeks. Pharmacokinetic blood samples were collected after week 6 of study treatment. Samples were collected at pre-dose, 0.5 (only for those on TAF/FTC), 1, 2, 4, 6, 8, 12, and 24 hours post-dose, and plasma was stored at −80°C. On the day of pharmacokinetic blood sampling, study drugs were administered under direct observation, with food (breakfast with 5% fat, ~250 kCal). All non-ART co-medications were taken at least 2 hours after study drugs.
R v4.2.2 via RStudio (Posit Public Benefit Corporation) and Pirana v2.9.9 (Certara, Inc.) were utilized to visualize and process the data, and Perl Speaks NONMEM v5.2.6 (Department of Pharmacy, Uppsala University) was used for automation of the analysis processes ([17]).
We tested one- and two-compartment disposition models and several absorption models (sequential zero- and/or first-order, with lag time or transit compartments). Simple first-order elimination as well as first-pass and saturable elimination through a liver compartment were tested. We included between-subject variability (BSV) on disposition parameters and between-occasion variability (BOV) on absorption parameters, assuming a log-normal distribution. Combined additive and proportional error models to describe residual unexplained variability were evaluated. Samples with undetectable drug concentrations were treated as censored at the limit of detection (LOD), which was imputed as 30% of the LLOQ ([19]), and handled using a modified version of the M6 method by Beal ([20]). The undetectable (i.e., censored) values were imputed to half of the LOD value (LOD/2), and the additive error was inflated by LOD/2. If a series of undetectable values was present, the value closest to the peak concentration was retained, while all trailing values were excluded from the model fit but retained for simulation-based diagnostics.
(§1) Covariates were maintained if they reached statistical significance of P < 0.05 on forward addition and P < 0.01 on backward elimination. […] The performance of intermediate and final models was assessed both numerically and using goodness of fit plots, and by simulation-based diagnostics such as visual predictive checks (VPC) ([23]). Parameter precision was evaluated using the sampling importance resampling (SIR) procedure ([24]). The effect of covariates on the simulated area under the curve from 0 to 24 hours (AUC0–24 h) for all study arms was visualized using a forest plot based on 1,000 simulations accounting for parameter uncertainty ([25]).

[2] = Covariate effects forest plot of simulated ritonavir AUC0–24 h (1,000 simulations accounting for parameter uncertainty); design: species or system African children with HIV; conditions: reference a child of 26 kg receiving 100 mg of ritonavir in combination with darunavir
Protocol: as §1

[3] = design: method as in PMID 19210693; conditions: cross-over pharmacokinetic study; cited from earlier work

CC(C)c1nc(CN(C)C(=O)N[C@H](C(=O)N[C@@H](Cc2ccccc2)C[C@H](O)[C@H](Cc2ccccc2)NC(=O)OCc2cncs2)C(C)C)cs1 [ritonavir]
Observed Cmax of ritonavir, median (interquartile range) ([1]; atazanavir/ritonavir once daily, weight band 14–19.9 kg, ATV/r 200/75 mg, 3 out of 12 children got 100 mg ritonavir instead of 75 mg): 2.68 (2.33–3.25)^a mg/L | Observed Cmax of ritonavir, median (interquartile range) ([1]; darunavir/ritonavir once daily, weight band 20–24.9 kg, DRV/r 600/100 mg): 1.27 (1.10–1.52) mg/L | Observed Cmax of ritonavir, median (interquartile range) ([1]; darunavir/ritonavir once daily, weight band ≥35 kg, DRV/r 800/100 mg): 0.81 (0.53–1.04) mg/L | Between-occasion variability, Bioavailability ([1]; human, in vivo): 40.1 (35.2–46.0) % | Between-occasion variability, First-order absorption rate constant ([1]; human, in vivo): 114 (90.0–141) % | Between-occasion variability, Lag time ([1]; human, in vivo): 62.0 (54.5–70.2) % | Between-occasion variability, Zero-order rate of absorption ([1]; human, in vivo): 52.5 (42.7–63.0) % | Between-subject variability, Clearance ([1]; human, in vivo): 13.1 (10.2–15.8) % | Extra variability for unobserved doses ([1]; human, in vivo): 2.14 (1.53–2.42) fold change | First-order absorption rate constant, typical value (95% confidence interval) ([1]; human, in vivo): 1.16 (0.893–1.89) 1/h | Lag time, typical value (95% confidence interval) ([1]; human, in vivo): 0.981 (0.934–1.06) h | Zero-order absorption duration, typical value (95% confidence interval) ([1]; human, in vivo): 2.45 (2.05–2.80) h | Central volume of distribution, typical value (95% confidence interval) ([1]; human, in vivo, po): 54.5 (48.9–60.4) L | Clearance, typical value (95% confidence interval) ([1]; human, in vivo, po): 10.5 (9.22–11.9) L/h | Cmax ([1]; human, in vivo, po): 1320 ng/mL | Intercompartmental clearance, typical value (95% confidence interval) ([1]; human, in vivo, po): 1.19 (0.851–1.58) L/h | Peripheral volume of distribution, typical value (95% confidence interval) ([1]; human, in vivo, po): 134 (38.8–330) L | Cmax ([1]; human, in vivo, po, 100 mg, Observed Cmax of ritonavir, median (interquartile range)): 2760 ng/mL | Model-based AUC0–24 h of ritonavir, median (interquartile range) ([1]; lopinavir/ritonavir twice daily, weight band 20–24.9 kg, daily dose LPV/r 400/100 mg): 10.3 (7.30–12.8) mg·h/L | Observed Cmax of ritonavir, median (interquartile range) ([1]; lopinavir/ritonavir twice daily, weight band ≥35 kg, daily dose LPV/r 800/200 mg): 0.80 (0.47–1.42) mg/L | Increase of ritonavir AUC0–24 h by atazanavir [2]: 99.0% | Lowering of plasma AUC of ritonavir by darunavir [3]: 14%
